Key:
[1] = magnesium absorption rate in rats (intake versus fecal excretion, ICP-AES); settings: FIG. 4, Example 5, Mg gluconate in skim milk or water with 5 weight percent lactose, MgCl2 in water
Description: Fifty 3-month old, male Sprague Dawley (SD) rats were divided into five groups of ten rats. Rats of this age and older are considered adult. Each of the rats was placed in a separate metabolic cage equipped with urine- and feces-collecting wells. All of the rats were maintained in a temperature-controlled room (22° C. to 25° C.) with a dark period from 08:00 pm to 08:00 am daily. From day 1 through day 3, each rat was fed daily 15 g of magnesium-free food and de-ionized water. […] The medium was skim milk for Composition 1 and Group 1, milk prepared from powdered milk, by diluting the powdered milk with water to obtain a composition like that of skim milk, for Composition 2 and Group 2, 1% milk cream in water for Composition 3 and Group 3, water comprising 5 weight percent lactose for Composition 4 and Group 4, and water for the Control Composition and Control Group. […]
From day 4 through day 10, urine from each rat was collected daily. The collected urine from each rat was then pooled together and the total volume of the pooled urine from each rat was recorded. The pooled urine from each rat, in an amount of […], was analyzed for magnesium content using an inductively coupled plasma-atomic emission spectrometer (ICP-AES). […] The pooled feces from each rat, in an amount of 0.5 g, were analyzed for magnesium content using an ICP-AES. […]

rats = assay: novel object recognition test in rats; type: in vivo, rat
Description: In this example, the effect of magnesium supplementation on recognition memory was tested. Three groups of rats were used in these experiments: 1) young rats (three months old); aging rats (12-14 months old), and; 3) magnesium-treated aging rats (12-14 months old, diet supplemented with 6 mg/kg MgCl2 from 8 months of age). We used experimentally naive, female, Sprague-Dawley young […], aging (12-14 month old) and […] rats (Charles River) at the beginning of the behavior experiments. They were housed two per cage with continuous access to food and water under a 12:12 light-dark cycle, with light onset at 8:00 a.m. […] All experiments involving animals were approved by the Massachusetts Institute of Technology's and Tsinghua University Committees on Animal Care.
The three groups of rats were tested for recognition memory using an object recognition test with a single exposure to the object during training. The task is based on the natural tendency of rodents to explore new objects and tests the animals' memory capacity for distinguishing novel versus familiar objects.
Briefly, the rats were first individually habituated to the personnel and then to open-field arena during 2 weeks. […] The retention intervals were 10 min and 24 hours. Objects were cleaned thoroughly between trials with 20% ethanol solution to ensure the absence of olfactory cues. The particular objects for a given trial were randomly determined, but each object was used for only one trial per rat. Memory of the familiar object is associated with increased exploration of the new object and an exploration index (% correct) is calculated as new object inspection time/30.
In this example, the effect of magnesium supplementation on memory consolidation was studied. […]
Briefly, the rats were first individually habituated to the personnel and then to open-field arena during 2 weeks. […] The particular objects for a given trial were randomly determined, but each object was used for only one trial per rat. […]

[2] = tested on: young, aging and aged rats
Description: Twenty 2-month old, male Sprague Dawley (SD) rats were housed in a temperature-controlled room (22° C. to 25° C.) with a dark period from 08:00 pm to 08:00 am daily. […] Over 7 days before the training and trial period began, each rat was handled and habituated to the maze and to Kellogg's Froot Loop cereal.
Each rat underwent a test of one trial, followed by an interval of 10-minutes, followed by another trial, and so on, for a total of 6 trials in one day. In each trial, each rat went through a sample run in the maze, followed by an interval of 15 seconds, followed by a choice run in the maze. In the sample run, the subject rat was forced to go to the left or to the right by the presence of a block, according to a pseudorandom sequence (with an equal number of left turns and right turns, and no more than two consecutive turns in the same direction). As a reward, Froot Loop cereal was available in the food well at the end of the run, regardless of the direction that was taken by virtue of the block. In the choice run, the block that had been present in the preceding sample run was removed, and the rat was allowed to choose to go to the left or to the right. As a reward, Froot Loop cereal was available in the food well at the end of the run, only when the rat had made a “correct choice” by choosing the direction opposite that taken in the preceding sample run. […]
On the first day (designated day 0) of the feeding of the two groups, as just described, each rat underwent a preliminary test of one trial, followed by an interval of 10 minutes, followed by another trial, and so on, for a total of 4 trials in one day. […] In this preliminary test, the choice accuracy level, or ratio of correct choices made, co, to the number of number of trials in the test, no, was determined for each rat. […]
Three groups of animals (young, aging, and magnesium-treated aging rats) were used. […] Spatial working memory was assessed using a T-maze non-matching-to-place task. […] Spatial working memory was first assessed on an elevated T-maze. […]

AD mice = assay: physical motility (swimming speed) during water maze test; type: in vivo, mouse; settings: 7 months and 15 months of treatment, FIG. 21
Description: The swimming speed of each mice is calculated from off-analysis.

[3] = brain (brainstem) magnesium concentration in AD mice, ICP-OES; type: in vivo, mouse; settings: AD mice on magnesium diet from 5 month to 21 month of age, FIG. 26A
[4] = tested on: mice genetically altered to present symptoms of Alzheimer's disease (AD); assay: modified Morris water maze test in AD mice; type: in vivo, mouse; settings: AD mice aged 13 months, FIG. 16
Description: Another group, the control group, of 10 mice that were genetically altered to present symptoms of AD were fed a Control Diet, a diet of normal solid food and water, for 30 days.
The pool used was a pool of water in a circular metal tank (150 cm in diameter and 50 cm in depth) having a water height of 30 cm and a water temperature that was maintained at ˜22° C. The pool was placed in a moderately lit area and surrounded by a black curtain. An acrylic platform (15 cm in diameter) was placed 2 cm below the surface of the water in the middle of one quadrant of the pool, equidistant from the center and the edge of the pool. Outside the pool, a cue was placed so as to be visible to a mouse in the maze, allowing a mouse to use it as a landmark for spatial orientation. The cue remained unchanged throughout the test period.
On the first day of the training and testing period, the water in the pool was transparent, such that the platform was visible. Each mouse was trained to swim towards the platform and to stand on the platform so as not to be submerged in the pool. […] The amount of time the mouse took to find the platform, referred to as “escape latency,” was recorded for each trial.
On the second day of the training and testing period, a small quantity of milk was added to the water in the pool, such that the pool was opaque and the platform was no longer visible. […]

diabetic patients = settings: nearly 1 g of magnesium daily for 1 month; cited from earlier work

## [Cl-].[Cl-].[Mg+2] [MgCl2, magnesium chloride]
[1]
  magnesium absorption rate of the higher dosage compositions (magnesium loading capacity): less desirable
rats; aging rats (12-14 months old), 6 mg/kg MgCl2 from 8 months of age, single exposure training, P<0.0001
  novel object exploration preference, 10 minute retention interval: preferentially explored the novel object to the same extent as young rats
rats; aging rats, single exposure training, all groups
  ability to distinguish novel versus familiar objects after 24 hours: lose there ability to distinguish novel versus familiar objects
rats; two training sessions separated by 10 minutes, magnesium-treated aging rats
  preference for the novel object, 24-hour retention interval after spaced training: retained a high level of preference
[2]; all three groups (young, aging, magnesium-treated aging rats)
  asymptotic choice accuracy level after 8 days of training: ~94%
[2]; magnesium-treated aging rats versus aging rats, p<0.05
  learning in non-matching-to-place task, 15 sec delay: performed significantly better from their first trials
[2]; magnesium-treated aging rats, p<0.05
  spatial working memory with increased delay between sample and choice trials: significantly enhanced the performance of the aging rats at 2 and 5 min delays

## magnesium
AD mice
  mobility during the water maze test: greatly increased mobility
[3]
  relation of magnesium intake to brain magnesium: linearly correlated to the amount of brain magnesium

## magnesium gluconate
[1]
  magnesium absorption rate of the higher dosage compositions (magnesium loading capacity): suitably close to those associated with the lower dosage compositions

## CC12CC3CC(C)(C1)CC(N)(C3)C2 [memantine]
[4]
  reduction of the effects of AD on learning capacity: better at reducing the effects of AD on learning capacity than aricept

## [O]=[Mg] [magnesium oxide]
Diabetic patients
  increase of serum magnesium level: about 10%
  metabolic control: only minor improvement in metabolic control

Source: patent publication US8178118B2, “Magnesium compositions and uses thereof for cognitive function” (Magceutics, Inc., priority 2007, dated 2012)
